Data published in patent US11203592B2, “Inhibitors of indoleamine 2,3-dioxygenase and methods of their use” (BRISTOL-MYERS SQUIBB COMPANY, priority 2017, dated 2021).
Counter-ions that a name gives are not always drawn.

What follows are molecules tested against T1, human IDO1 (Homo sapiens, UniProt P14902) (assay: human IDO1/HEK293 cell IDO inhibition assay). Conditions: HEK293 cells stably expressing human IDO1, 20 hours incubation, absorbance at 490 nm; read-out: IDO1 HEK Human IC50.
T1 construct: expressed in transfected cells
T1 sequence (P14902 whole entry): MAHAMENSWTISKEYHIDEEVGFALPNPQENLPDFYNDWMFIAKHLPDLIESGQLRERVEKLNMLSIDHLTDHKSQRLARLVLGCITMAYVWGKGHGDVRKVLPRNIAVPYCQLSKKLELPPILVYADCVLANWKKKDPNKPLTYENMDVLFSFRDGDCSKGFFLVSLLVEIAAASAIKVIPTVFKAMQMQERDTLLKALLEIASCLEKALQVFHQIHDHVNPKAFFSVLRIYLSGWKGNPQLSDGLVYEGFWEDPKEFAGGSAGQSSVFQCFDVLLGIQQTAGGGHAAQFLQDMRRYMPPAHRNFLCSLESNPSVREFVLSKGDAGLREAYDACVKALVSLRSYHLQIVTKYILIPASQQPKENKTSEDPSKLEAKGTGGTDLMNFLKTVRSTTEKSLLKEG
Assay type: cell-based
Method: HEK293 cells were transfected with a pCDNA-based mammalian expression vector harboring human IDO1 cDNA (NM 002164.2) by electroporation. They were cultured in medium (DMEM with 10% FBS) containing 1 mg/ml G418 for two weeks. Clones of HEK293 cells that stably expressed human IDO1 protein were selected and expanded for IDO inhibition assay.
The human IDO1/HEK293 cells were seeded at 10,000 cells per 50 μL per well with RPMI/phenol red free media contains 10% FBS in a 384-well black wall clear bottom tissue culture plate (Matrix Technologies LLC) 100 nL of certain concentration of compound was then added to each well using ECHO liquid handling systems. The cells were incubated for 20 hours in 37° C. incubator with 5% CO2.
The compound treatments were stopped by adding trichloroacetic acid (Sigma-Aldrich) to a final concentration at 0.2%. The cell plate was further incubated at 50° C. for 30 minute. The equal volume supernatant (20 μL) and 0.2% (w/v) Ehrlich reagent (4-dimethylaminobenzaldehyde, Sigma-Aldrich) in glacial acetic acid were mixed in a new clear bottom 384-well plate. This plate was then incubated at room temperature for 30 minute. The absorbance at 490 nm was measured on Envision plate reader.
Compound IC50 values were calculated using the counts of 500 nM of a reference standard treatment as one hundred percent inhibition, and counts of no compound but DMSO treatment as zero percent inhibition.

SMILES	IC50 [nM]
Cc1cccc2c1[C@]1(CC[C@H](C(C)C(=O)Nc3ccc(Cl)cc3)CC1)OC2 (mixture of isomers) [Example 8, rac-N-(4-chlorophenyl)-2-((1s,4s)-7′-methyl-3′H-spiro[cyclohexane-1,1′-isobenzofuran]-4-yl)propanamide]	24
Cc1cccc2c1[C@]1(CC[C@H](C(C)C(=O)NC3(C)CCCCC3)CC1)OC2 (mixture of isomers) [Example 10, rac-2-((1s,4s)-7′-methyl-3′H-spiro[cyclohexane-1,1′-isobenzofuran]-4-yl)-N-(1-methylcyclohexyl)propanamide]	980
CC(NC(=O)c1ccc(Cl)cc1)[C@H]1CC[C@@]2(CC1)COc1ccccc12 (mixture of isomers) [Example 17, rac-N-(1-((1′r,4′r)-2H-Spiro[benzofuran-3,1′-cyclohexan]-4′-yl)ethyl)-4-chlorobenzamide]	59
CC(NC(=O)c1ccc(Cl)cc1)[C@H]1CC[C@]2(CC1)COc1ccccc12 (mixture of isomers) [Example 21, rac-N-(1-((1′s,4′s)-2H-Spiro[benzofuran-3,1′-cyclohexan]-4′-yl)ethyl)-4-chlorobenzamide]	59
Cc1cccc2c1OC(CO)[C@]21CC[C@@H](CC(=O)Nc2ccc(Cl)cc2)CC1 (mixture of isomers) [Example 30, rac-N-(4-Chlorophenyl)-2-((1′s,2R,4′S)-2-(hydroxymethyl)-7-methyl-2H-spiro[benzofuran-3,1′-cyclohexan]-4′-yl)acetamide]	363
C[C@@H](C(=O)Nc1ccc(Cl)cc1)[C@H]1CC[C@@]2(CC1)COc1ccccc12 [Example 16, (R)—N-(4-Chlorophenyl)-2-((1′R,4′r)-2H-spiro[benzofuran-3,1′-cyclohexan]-4′-yl)propanamide]	8
C[C@@H](NC(=O)c1ccc(Cl)cc1)[C@H]1CC[C@@]2(CC1)COc1ccccc12 [Example 18, N—((R)-1-((1′R,4′r)-2H-Spiro[benzofuran-3,1′-cyclohexan]-4′-yl)ethyl)-4-chlorobenzamide]	9
C[C@@H](c1nc2ccc(Cl)cc2[nH]1)[C@H]1CC[C@@]2(CC1)COc1ccccc12 [Example 22, 2-((R)-1-((3R,4′r)-2H-spiro[benzofuran-3,1′-cyclohexan]-4′-yl)ethyl)-6-chloro-1H-benzo[d]imidazole]	142
C[C@H](c1nc2ncc(Cl)cc2[nH]1)[C@H]1CC[C@@]2(CC1)COc1ccccc12 [Example 26, 2-((S)-1-((3S,4′r)-2H-spiro[benzofuran-3,1′-cyclohexan]-4′-yl)ethyl)-6-chloro-1H-imidazo[4,5-b]pyridine]	43

Now from value to molecule:

IC50 [nM]	SMILES
37	Cc1cccc2c1[C@]1(CC[C@@H](C(C)C(=O)Nc3ccc(Cl)cc3)CC1)OC2 (mixture of isomers) [Example 7, rac-N-(4-Chlorophenyl)-2-((1r,4r)-7′-methyl-3′H-spiro[cyclohexane-1,1′-isobenzofuran]-4-yl)propanamide]
617	Cc1cccc2c1[C@]1(CC[C@H](C(C)C(=O)NC34CC5CC(CC(C5)C3)C4)CC1)OC2 (mixture of isomers) [Example 9, rac-N-((1R,3S)-adamantan-1-yl)-2-((1S,4s)-7′-methyl-3′H-spiro[cyclohexane-1,1′-isobenzofuran]-4-yl)propanamide]
5	CC(C(=O)Nc1ccc(Cl)cc1)[C@H]1CC[C@@]2(CC1)COc1ccccc12 (mixture of isomers) [Example 14, rac-N-(4-Chlorophenyl)-2-((1′r,4′r)-2H-spiro[benzofuran-3,1′-cyclohexan]-4′-yl)propanamide]
61	CC(C(=O)Nc1ccc(Cl)cc1)[C@H]1CC[C@]2(CC1)COc1ccccc12 (mixture of isomers) [Example 20, rac-N-(4-Chlorophenyl)-2-((1′s,4′s)-2H-spiro[benzofuran-3,1′-cyclohexan]-4′-yl)propanamide]
117	CC(c1nc2ncc(Cl)cc2[nH]1)[C@H]1CC[C@@]2(CC1)COc1ccccc12 (mixture of isomers) [Example 24, rac-2-(1-((1′r,4′r)-2H-Spiro[benzofuran-3,1′-cyclohexan]-4′-yl)ethyl)-6-chloro-1H-imidazo[4,5-b]pyridine TFA Salt]
93	CC(NC(=O)c1ccc(C#N)cc1)[C@H]1CC[C@]2(CC1)COc1ccccc12 (mixture of isomers) [Example 27, rac-N-(1-((1′s,4′s)-2H-Spiro[benzofuran-3,1′-cyclohexan]-4′-yl)ethyl)-4-cyanobenzamide]
68	Cc1cccc2c1OC(CO)[C@]21CC[C@H](CC(=O)Nc2ccc(Cl)cc2)CC1 (mixture of isomers) [Example 29, rac-N-(4-Chlorophenyl)-2-((1′r,2R,4′R)-2-(hydroxymethyl)-7-methyl-2H-spiro[benzofuran-3,1′-cyclohexan]-4′-yl)acetamide]
914	C[C@H](NC(=O)c1ccc(Cl)cc1)[C@H]1CC[C@@]2(CC1)COc1ccccc12 [Example 19, N—((S)-1-((1'S,4′r)-2H-Spiro[benzofuran-3,1′-cyclohexan]-4′-yl)ethyl)-4-chlorobenzamide]
254	C[C@H](c1nc2ccc(Cl)cc2[nH]1)[C@H]1CC[C@@]2(CC1)COc1ccccc12 [Example 23, 2-((S)-1-((3S,4′r)-2H-spiro[benzofuran-3,1′-cyclohexan]-4′-yl)ethyl)-6-chloro-1H-benzo[d]imidazole]
794	C[C@@H](c1nc2ncc(Cl)cc2[nH]1)[C@H]1CC[C@@]2(CC1)COc1ccccc12 [Example 25, 2-((R)-1-((3R,4′r)-2H-spiro[benzofuran-3,1′-cyclohexan]-4′-yl)ethyl)-6-chloro-1H-imidazo[4,5-b]pyridine]
